# System: MCF7 viability, PrestoBlue fluorescence
# Experiment: antiproliferative effect, MCF7 breast cancer line – cell-based, mTOR inhibitor project, dose response (AID 1224901)
smiles,measurement,value
CCOC(Cn1nc(-c2ccc3oc(N)nc3c2)c2c(N)ncnc21)OCC,EC50,8 nM
